Test results published in US7902226B2, “Dehalogeno-compounds” (Daiichi Pharmaceutical Co., Ltd., priority 2000, dated 2011).
Values after ≈ are worked out from the molar mass of the structure shown.

Key:
bone marrow of mice = experiment: Micronucleus test in bone marrow of mice; format: in vivo; details: Slc:ddY male mice, 24 hours after administration
Procedure: For the compound described as Example 1 of this invention, the micronucleus test in bone marrow of mice was performed by the following method.
Mice groups, each consisting of five, six-week-old, Slc:ddY male mice, were used. The compound of this invention described as Example 1 and 7-[3-(R)-(1-aminocyclopropyl)pyrrolidin-1-yl]-6-fluoro-1-[2-(S)-fluoro-1-(R)-cyclopropyl]-8-methyl-1,4-dihydro-4-oxoquinoline-3-carboxylic acid (Reference drug 1) described in PCT/JP96/00208 were dissolved in and diluted with 0.1 mol/l NaOH/saline solution. The 0.1 mol/l NaOH/saline solvent was used as a control, and as a positive Reference drug, a drug solution, prepared by dissolving and diluting cyclophosphamide (CP) in saline solution, was used. All drug solutions were disinfected by filtration through Mylex GS 0.22 μm filters. With each drug solution, a single intravenous dose of 10 ml/kg was administered at an administration rate of 0.2 ml/min. 24 hours after administration, […] were collected from the femur bone, the smear preparations were prepared, and these were dyed with […].

S. aureus, 870307 = experiment: Antibacterial activity (MIC), standard method of the Japan Society of Chemotherapy; format: cell-based; details: Staphylococcus aureus
Procedure: (§1) Antibacterial activities of the compounds of this invention were measured in accordance to the standard method designated by the Japan Society of Chemotherapy, with the results shown as MIC values (microgram/ml) units in the following table. For comparison with the MIC values of the compounds of this invention, MIC values of levofloxacin (LVFX), ciprofloxacin (CPFX) and 7-[3-(R)-(1-aminocyclopropyl)pyrrolidin-1-yl]-6-fluoro-1-[2-(S)-fluoro-1-(R)-cyclopropyl]-8-methyl-1,4-dihydro-4-oxoquinoline-3-carboxylic acid (Reference drug 1), which is described in PCT/JP96/00208, are also shown in the table.

[1] = tested on: Str. faecalis, ATCC 19433; experiment: as above; format: cell-based; details: Enterococcus faecalis, ATCC19433
Procedure: as §1

Pr. vulgalis, 08601 = experiment: as above; format: cell-based
Procedure: as §1

S. epidermidis, 56500 = experiment: as above; format: cell-based; details: Staphylococcus epidermidis
Procedure: as §1

Ps. aeruginosa, 32121 = experiment: as above; format: cell-based; details: Pseudomonas aeruginosa
Procedure: as §1

S. aureus, 209P = experiment: as above; format: cell-based; details: Staphylococcus aureus
Procedure: as §1

S. flexneri, 2A 5503 = experiment: as above; format: cell-based; details: Shigella flexneri, 2A5503
Procedure: as §1

Ser. marcescens, 10100 = experiment: as above; format: cell-based; details: Serratia marcescens
Procedure: as §1

Str. pneumoniae J24 = experiment: as above; format: cell-based; details: Streptococcus pneumoniae
Procedure: as §1

E. coli, NIHJ = experiment: as above; format: cell-based; details: Escherichia coli
Procedure: as §1

[2] = tested on: Ps. maltophilia, IID-1275; experiment: as above; format: cell-based; details: Stenotrophomonas maltophilia, IID1275
Procedure: as §1

Ps. aeruginosa, 32104 = experiment: as above; format: cell-based; details: Pseudomonas aeruginosa
Procedure: as §1

Str. pyogenes, G-36 = experiment: as above; format: cell-based; details: Streptococcus pyogenes, G36
Procedure: as §1

K. pneumoniae, Type 1 = experiment: as above; format: cell-based; details: Klebsiella pneumoniae, TYPE1
Procedure: as §1

For Cc1c(N2CC[C@@H](C3(N)CC3)C2)c(F)cc2c(=O)c(C(=O)O)cn([C@@H]3C[C@@H]3F)c12 [Reference drug 1, 7-[3-(R)-(1-aminocyclopropyl)pyrrolidin-1-yl]-6-fluoro-1-[2-(S)-fluoro-1-(R)-cyclopropyl]-8-methyl-1,4-dihydro-4-oxoquinoline-3-carboxylic acid, reference compound], the “micronucleus induction in comparison to the control” value (bone marrow of mice; single intravenous dose, 50 and 100 mg/kg administration groups) was “clearly seen”, the MIC (S. aureus, 870307) was 0.012 µg/mL (≈ 0.0297 µM) and the MIC [1] was 0.006 µg/mL (≈ 0.0149 µM). It also gave an MIC (Pr. vulgalis, 08601) of no more than 0.003 µg/mL, an MIC (S. epidermidis, 56500) of no more than 0.003 µg/mL and an MIC (Ps. aeruginosa, 32121) of 0.012 µg/mL (≈ 0.0297 µM). For the same molecule, the MIC (S. aureus, 209P) was no more than 0.003 µg/mL, the MIC (S. flexneri, 2A 5503) was no more than 0.003 µg/mL and the MIC (Ser. marcescens, 10100) was 0.012 µg/mL (≈ 0.0297 µM). For the same molecule, the MIC (Str. pneumoniae J24) was no more than 0.003 µg/mL, the MIC (E. coli, NIHJ) was no more than 0.003 µg/mL and the MIC [2] was no more than 0.003 µg/mL. The MIC (Ps. aeruginosa, 32104) was 0.025 µg/mL (≈ 0.062 µM), the MIC (Str. pyogenes, G-36) was no more than 0.003 µg/mL and the MIC (K. pneumoniae, Type 1) was 0.006 µg/mL (≈ 0.0149 µM).
In the case of Cc1c(N2CC[C@@H](C3(N)CC3)C2)ccc2c(=O)c(C(=O)O)cn([C@@H]3C[C@@H]3F)c12 [Example 1, 7-[3-(R)-(1-aminocyclopropyl)pyrrolidin-1-yl]-1-[2-(S)-fluoro-1-(R)-cyclopropyl]-1,4-dihydro-8-methyl-4-oxoquinoline-3-carboxylic acid], the “micronucleus induction, judgment result” value (bone marrow of mice; single intravenous dose, 25, 50, and 100 mg/kg administration groups, versus control) is reported as “negative”, the MIC (S. aureus, 870307) is reported as 0.05 µg/mL (≈ 0.13 µM) and the MIC [1] is reported as 0.012 µg/mL (≈ 0.0311 µM). It also gave an MIC (Pr. vulgalis, 08601) of no more than 0.003 µg/mL, an MIC (S. epidermidis, 56500) of no more than 0.003 µg/mL and an MIC (Ps. aeruginosa, 32121) of 0.025 µg/mL (≈ 0.0649 µM). For the same molecule, the MIC (S. aureus, 209P) was no more than 0.003 µg/mL, the MIC (S. flexneri, 2A 5503) was 0.006 µg/mL (≈ 0.0156 µM) and the MIC (Ser. marcescens, 10100) was 0.025 µg/mL (≈ 0.0649 µM). It also gave an MIC (Str. pneumoniae J24) of no more than 0.003 µg/mL, an MIC (E. coli, NIHJ) of no more than 0.003 µg/mL and an MIC [2] of 0.2 µg/mL (≈ 0.519 µM). The MIC (Ps. aeruginosa, 32104) was 0.05 µg/mL (≈ 0.13 µM), the MIC (Str. pyogenes, G-36) was no more than 0.003 µg/mL and the MIC (K. pneumoniae, Type 1) was 0.025 µg/mL (≈ 0.0649 µM).
